The record followed here is PMC11451635, “A Broad Spectrum Lasso Peptide Antibiotic Targeting the Bacterial Ribosome” (Research Square, 2024).

One experiment concerns Bacillus subtilis 168. The experiment is classed as cell-based.
The test system of experiment [1] is rabbit reticulocyte lysate (luc mRNA). The experiment in a line: In vitro translation in rabbit reticulocyte lysate. The experiment is classed as biochemical. The procedure: The effect of LAR on eukaryotic translation was assessed using Rabbit Reticulocyte Lysate System (L4960, Promega) programmed with firefly luciferase mRNA. In vitro reactions were assembled according to the manufacturer’s protocol in a nal volume of 10 μL supplemented with 0.02–50 μM of LAR or no antibiotic and incubated for 90 min at 30°C. After that, 2.5 μL from each reaction was mixed with 50 μl of prewarmed luciferase assay reagent, and the luminescence was measured in Infinite M200 PRO plate reader (TECAN) for 10 min at 25°C. The assay was performed in triplicate.

For experiment [2], the system named is E. coli BW25113 membrane. The experiment in a line: Propidium iodide uptake assay. The experiment is classed as cell-based, Escherichia coli. The note with it: propidium iodide 4 μM, 30 min, RT, fluorescence. How it is done:
E. coli BW25113 cells were prepared as described above and mixed with propidium iodide (final concentration 4 μM). Cell suspension (190 μL) was then placed into wells of a 96-well black-wall plate and supplemented with 10 μL of compounds at various concentrations. Fluorescence (lex/lem: 535/617 nm) was monitored for 30 min at RT in a Synergy Microplate Reader (Biotek). Colistin was used as a positive control.

Experiment [3] deals with E. coli BW25113 membrane. The experiment in a line: Membrane depolarization assay. The experiment is classed as cell-based, Escherichia coli. As to conditions: DiOC2(3) 30 μM, 60 min, room temperature, fluorescence. The procedure: Mid-exponential phase E. coli BW25113 culture (OD600 0.3–0.5) was mixed with […] (DiOC2(3), ThermoFisher Scienti c) dye at a nal concentration of 30 μM and 190 μL of cells were placed into wells of a 96-well black plate. A volume of 10 μl of test compounds or DMSO was added, mixed by pipetting, and fluorescence was measured for 60 min at room temperature using a Synergy Microplate Reader (Biotek) (lex/lem: 450/670 nm). Carbonyl cyanide m-chlorophenyl hydrazone (CCCP) served as a positive control.

A further experiment has as its system E. coli BW25113. The experiment in a line: Selection of spontaneous resistant mutants. As to conditions: ~10^9 cfu on MOPS minimal agar, 37°C, 24–48 h. The experiment is classed as cell-based, Escherichia coli.
Experiment [4] concerns strains with deletions of the individual identified genes. The experiment in a line: MIC in deletion strains of identified ETC/respiration genes. The experiment is classed as cell-based. The note with it: deletions of genes related to ETC and respiration. How it is done:
MICs were determined using broth microdilution method in cation-adjusted Mueller-Hinton Broth (MHBII, BD Difco) following standard procedures unless stated otherwise. Mycobacteria susceptibility was tested in Middlebrook 7H9 medium supplemented with 10% OADC Enrichment (oleic acid, bovine albumin, dextrose, and catalase) (BD Difco). The compounds (2 to 4 μl) were mixed with diluted cultures (5–7 × 10^5 cfu/mL) in MHB (196 to 198 μL) in 96-well round-bottom plates, and 2-fold serial dilutions were made. Plates were incubated at 37°C for 18–22 h, and OD600 readings were taken on Synergy Microplate Reader (Biotek). MIC was determined to be the lowest concentration of antibiotics with no visible growth. For Mycobacterial cultures, the plates were read after two to three days. Susceptibility was also assessed in MOPS minimal medium with 0.4% glucose (M2106 Teknova) and RPMI-1640 medium. Serum effects were tested in MHB with 10% or 50% fetal bovine serum (Invitrogen) or human serum (Heat Inactivated, from human male AB plasma; Sigma-Aldrich). For anaerobic conditions, E. coli was incubated in BD GasPak™ EZ pouch systems. To adjust the pH of the media, 1M NaOH or 1N HCl was used.

Experiment [5] deals with T. thermophilus 70S ribosome. The experiment in a line: X-ray structure of ribosome complex. The experiment is classed as binding, Thermus thermophilus.
The test system of a further experiment is E coli BW25113 ΔtolC. As to conditions: 18–22 h.
In experiment [6] the test system is Clostridium perfringens GC1584. The note with it: column MHB; method: BHI + L-cysteine, hemin, vitamin K, anaerobic, 37 °C.
The subject of experiment [7] is E. coli cell-free transcription-translation system (gfp mRNA). The experiment in a line: In vitro translation, GFP mRNA.
For another experiment, the system named is E. coli SQ110DTC. The experiment in a line: Selection of spontaneous rRNA resistant mutants.
Experiment [8] has as its system E. coli strain CA244 lacZ C1456T. The experiment in a line: Miscoding assay (lacZ premature stop codon readthrough). The note with it: MOPS agar, X-gal 80 μg/ml, IPTG 250 μM; 60.7 μg LAR spotted, ~18 h, 37°C.

In brackets after ≈: the same amount, converted by molar mass. Entries after “also recorded” stand apart in the source; their conditions may differ. Read-outs that look alike come from different tables or passages of the source. Where a SMILES comes first, the peptide text is derived from it. Bridges are numbered along the chain shown (N, C = ends). Bounds are passed on as bounds.

A word on the IC50: it is the concentration that inhibits the measured activity by half. By MIC is commonly meant the lowest concentration that inhibits growth of the organism.

As to `CC(C)[C@H](NC(=O)CNC(=O)[C@H](CCCNC(=N)N)NC(=O)CNC(=O)[C@H](Cc1ccccc1)NC(=O)[C@H](CCCCN)NC(=O)CNC(=O)[C@@H]1CC(=O)N[C@@H](CO)C(=O)N[C@@H](CCCCN)C(=O)N[C@@H](CCCCN)C(=O)N[C@@H](CO)C(=O)N[C@@H](CCCCN)C(=O)N2CCC[C@H]2C(=O)NCC(=O)N1)C(=O)N[C@@H](CCCCN)C(=O)N[C@@H](CCCNC(=N)N)C(=O)NCC(=O)O` [LAR, lariocidin] (SKKSKPGDGKFGRGVKRG-OH; lactam N-8), the “MIC (text)” value against Bacillus subtilis 168 was 1 µg/mL (≈ 0.534 µM). Moreover, the “Effect on eukaryotic translation” value in experiment [1] was “only a marginal effect on eukaryotic translation”. Besides, the IC50 in [1] (luc mRNA, 0.02–50 μM LAR, 90 min, 30°C, luminescence, mean of three experiments, read-out: IC50, protein biosynthesis) was found to be 14.2 µM; in [7] (read-out: IC50, protein synthesis, gfp mRNA, E. coli cell-free system, real-time sfGFP fluorescence, 1 h, mean of three experiments), 0.24 µM. Further, the “IC50 in mammalian cell-free translation vs bacterial” value in [1] (ratio to E. coli system IC50) is given as ~ 58 fold. Further, the Membrane permeabilization entry with E. coli BW25113 membrane [2] is recorded as “did not permeabilize”. Besides, the Membrane depolarization entry in the experiment with E. coli BW25113 membrane [3] was “did not permeabilize or depolarize the bacterial membrane”. Also, in the experiment with E. coli BW25113, the “Frequency of resistant mutants” value was ~ 10^−8. For the same compound, the “Change in MIC in deletion strains” value in experiment [4] was “no significant changes in MIC”. For the same compound, the “Ribosome binding (X-ray structure)” value in experiment [5] (70S ribosome with mRNA and tRNAs, 250 μM antibiotic) is “binds to the small ribosomal subunit at a distinct site adjacent to the decoding center”. Also, the “Ribosome binding without mRNA and tRNAs” value in experiment [5] (Tth ribosome lacking mRNA and tRNAs (protein Y complex), 2.6 Å) is on record as “the presence of A-site tRNA is not essential for LAR binding to the ribosome”. In addition, the MIC was 2 to 4 µg/mL in the experiment with E coli BW25113 ΔtolC (MHB, 37°C); 0.5 µg/mL (≈ 0.267 µM) with E coli BW25113 ΔtolC (RPMI-1640, 37°C); over 256 µg/mL in experiment [6]. The “IC50 class in words, bacterial translation” value in experiment [7] (E. coli in vitro transcription-translation system, DNA or RNA) was “submicromolar”. Also, the “Effect of selected rRNA substitutions on MIC” value with E. coli SQ110DTC (16S rRNA resistance mutations, Extended Data Fig. 6a) is “modest effects”. In addition, the “Frequency of resistant clones” value in the experiment with E. coli SQ110DTC (MHB/agar, 64 μg/mL LAR (~4xMIC), 48 h, 37°C) is ~ 2×10^−8. Further, the “Miscoding / premature stop codon readthrough” value in [8] is reported as “induces miscoding; also recorded: induces premature stop codon readthrough”.
